Experimental data reported in patent US10287301B2 (Achillion Pharmaceuticals, Inc., priority 2015, dated 2019).
pIC50: −log10 of the molar value. Read-outs that look alike come from different tables or passages of the source.

Molecular target: Human Factor D (Homo sapiens (Human), UniProt P00746)
Assay: Human Factor D Assay
Format: biochemical
Summary of the method: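 IC50 values derive from nonlinear regression of Factor D reaction rates against compound concentration. The enzyme, purified from human serum, is used at 80 nM final with a 5 min room-temperature compound preincubation in 50 mM Tris, 1M NaCl, pH 7.5, before 100 μM Z-L-Lys-SBzl plus 100 μM DTNB are added.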

[1] = Human Factor D 80 nM, substrate Z-L-Lys-SBzl, read-out: IC50

Chain of Human Factor D (P00746 26-253): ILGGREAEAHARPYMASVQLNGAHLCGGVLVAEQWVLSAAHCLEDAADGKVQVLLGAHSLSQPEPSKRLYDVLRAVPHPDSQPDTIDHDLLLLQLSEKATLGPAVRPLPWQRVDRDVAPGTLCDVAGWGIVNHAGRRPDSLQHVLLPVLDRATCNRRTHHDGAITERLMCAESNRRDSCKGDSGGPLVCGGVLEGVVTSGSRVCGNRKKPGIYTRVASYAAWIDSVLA

Compound | pIC50 [1] | pIC50
NC(=O)c1nn(CC(=O)N2C[C@H](F)C[C@H]2C(=O)N[C@@H]2CCC[C@H]2O)c2ccc(-c3ccnnc3)cc12 [Compound 145, 1-(2-((2S,4R)-4-fluoro-2-((1R,2R)-2-hydroxycyclopentylcarbamoyl)pyrrolidin-1-yl)-2-oxoethyl)-5-(pyridazin-4-yl)-1H-indazole-3-carboxamide] | < 5.00 | –
NC(=O)c1nn(CC(=O)N2C[C@H](F)C[C@H]2C(=O)Nc2nc(-c3cccc(Cl)c3)ns2)c2ccc(-c3ccnnc3)cc12 [Compound 146, 1-(2-((2S,4R)-2-(3-(3-chlorophenyl)-1,2,4-thiadiazol-5-ylcarbamoyl)-4-fluoropyrrolidin-1-yl)-2-oxoethyl)-5-(pyridazin-4-yl)-1H-indazole-3-carboxamide] | < 5.00 | –
CC(=O)c1cn(CC(=O)N2C[C@H](F)C[C@H]2C(=O)Nc2nc(-c3cccc(Cl)c3)ns2)c2ccc(-c3ccnnc3)cc12 [Compound 147, (2S,4R)-1-(2-(3-acetyl-5-(pyridazin-4-yl)-1H-indol-1-yl)acetyl)-N-(3-(3-chlorophenyl)-1,2,4-thiadiazol-5-yl)-4-fluoropyrrolidine-2-carboxamide] | < 5.00 | –
CC(=O)c1cn(CC(=O)N2C[C@H](F)C[C@H]2C(=O)Nc2cccc(-c3ccccc3Cl)c2Cl)c2ccc(-c3cnc(C)nc3)cc12 [Compound 149, (2S,4R)-1-(2-(3-acetyl-5-(2-methylpyrimidin-5-yl)-1H-indol-1-yl)acetyl)-N-(2,2′-dichlorobiphenyl-3-yl)-4-fluoropyrrolidine-2-carboxamide] | – | > 6.00
CC(=O)c1cn(CC(=O)N2C[C@H](F)C[C@H]2C(=O)Nc2cccc(-c3cc(F)c(F)cc3Cl)c2F)c2ccc(-c3cnc(C)nc3)cc12 [Compound 150, (2S,4R)-1-(2-(3-acetyl-5-(2-methylpyrimidin-5-yl)-1H-indol-1-yl)acetyl)-N-(2′-chloro-2,4′,5′-trifluorobiphenyl-3-yl)-4-fluoropyrrolidine-2-carboxamide] | > 6.00 | –
CC(=O)c1cn(CC(=O)N2C[C@H](F)C[C@H]2C(=O)Nc2cccc(-c3ccccc3Cl)c2F)c2ccc(-c3ccc(C)nc3)cc12 [Compound 151, (2S,4R)-1-(2-(3-acetyl-5-(6-methylpyridin-3-yl)-1H-indol-1-yl)acetyl)-N-(2′-chloro-2-fluorobiphenyl-3-yl)-4-fluoropyrrolidine-2-carboxamide] | > 6.00 | –
CC1Oc2cccc(NC(=O)[C@@H]3C[C@@H](F)CN3C(=O)Cn3nc(C(N)=O)c4cc(-c5ccnnc5)ccc43)c2NC1=O (stereo partly drawn) [Compound 152, 1-(2-((2S,4R)-4-fluoro-2-(2-methyl-3-oxo-3,4-dihydro-2H-benzo[b][1,4]oxazin-5-ylcarbamoyl)pyrrolidin-1-yl)-2-oxoethyl)-5-(pyridazin-4-yl)-1H-indazole-3-carboxamide] | < 5.00 | –
CC(=O)c1cn(CC(=O)N2C[C@H](F)C[C@H]2C(=O)Nc2cccc3c2NC(=O)C(C)O3)c2ccc(-c3ccnnc3)cc12 (stereo partly drawn) [Compound 153, (2S,4R)-1-(2-(3-acetyl-5-(pyridazin-4-yl)-1H-indol-1-yl)acetyl)-4-fluoro-N-(2-methyl-3-oxo-3,4-dihydro-2H-benzo[b][1,4]oxazin-5-yl)pyrrolidine-2-carboxamide] | < 5.00 | –
NC(=O)c1nn(CC(=O)N2C[C@H](F)C[C@H]2C(=O)Nc2cc(O)ccn2)c2ccc(-c3ccnnc3)cc12 [Compound 154, 1-(2-((2S,4R)-4-fluoro-2-(4-hydroxypyridin-2-ylcarbamoyl)pyrrolidin-1-yl)-2-oxoethyl)-5-(pyridazin-4-yl)-1H-indazole-3-carboxamide] | < 5.00 | –
Cn1ccc(N2CCC(NC(=O)[C@@H]3C[C@@H](F)CN3C(=O)Cn3nc(C(N)=O)c4cc(-c5ccnnc5)ccc43)C2=O)n1 (stereo partly drawn) [Compound 155, 1-(2-((2S,4R)-4-fluoro-2-(1-(1-methyl-1H-pyrazol-3-yl)-2-oxopyrrolidin-3-ylcarbamoyl)pyrrolidin-1-yl)-2-oxoethyl)-5-(pyridazin-4-yl)-1H-indazole-3-carboxamide] | < 5.00 | –
CC(=O)c1cn(CC(=O)N2C[C@H](F)C[C@H]2C(=O)Nc2c[nH]nc2-c2ccc(Cl)cc2Cl)c2ccc(-c3ccnnc3)cc12 [Compound 156, (2S,4R)-1-(2-(3-acetyl-5-(pyridazin-4-yl)-1H-indol-1-yl)acetyl)-N-(3-(2,4-dichlorophenyl)-1H-pyrazol-4-yl)-4-fluoropyrrolidine-2-carboxamide] | < 5.00 | –
NC(=O)c1nn(CC(=O)N2C[C@H](F)C[C@H]2C(=O)NCc2ccncc2)c2ccc(-c3ccnnc3)cc12 [Compound 157, 1-(2-((2S,4R)-4-fluoro-2-(pyridin-4-ylmethylcarbamoyl)pyrrolidin-1-yl)-2-oxoethyl)-5-(pyridazin-4-yl)-1H-indazole-3-carboxamide] | < 5.00 | –
Cc1cc(NC(=O)[C@@H]2C[C@@H](F)CN2C(=O)Cn2nc(C(N)=O)c3cc(-c4ccnnc4)ccc32)n(-c2ccccc2F)n1 [Compound 158, 1-(2-((2S,4R)-4-fluoro-2-(1-(2-fluorophenyl)-3-methyl-1H-pyrazol-5-ylcarbamoyl)pyrrolidin-1-yl)-2-oxoethyl)-5-(pyridazin-4-yl)-1H-indazole-3-carboxamide] | < 5.00 | –
CC(=O)c1cn(CC(=O)N2C[C@@H](F)C[C@@H]2C(=O)NC2CCCN(c3ccccc3Cl)C2=O)c2ccc(-c3ccnnc3)cc12 (stereo partly drawn) [Compound 161, (2R,4S)-1-(2-(3-acetyl-5-(pyridazin-4-yl)-1H-indol-1-yl)acetyl)-N-(1-(2-chlorophenyl)-2-oxopiperidin-3-yl)-4-fluoropyrrolidine-2-carboxamide] | > 6.00 | –
CC(=O)c1nn(CC(=O)N2C[C@H](F)C[C@H]2C(=O)Nc2cccc(-c3ccccc3Cl)c2F)c2ccc(-c3cnc(C)nc3)cc12 [Compound 163, (2S,4R)-1-(2-(3-acetyl-5-(2-methylpyrimidin-5-yl)-1H-indazol-1-yl)acetyl)-N-(2′-chloro-2-fluorobiphenyl-3-yl)-4-fluoropyrrolidine-2-carboxamide] | > 6.00 | –
CC(=O)c1cn(CC(=O)N2C[C@H](F)C[C@H]2C(=O)Nc2cccc(-c3ncccc3Cl)c2F)c2ccc(-c3cnc(C)nc3)cc12 [Compound 164, (2S,4R)-1-(2-(3-acetyl-5-(2-methylpyrimidin-5-yl)-1H-indol-1-yl)acetyl)-N-(3-(3-chloropyridin-2-yl)-2-fluorophenyl)-4-fluoropyrrolidine-2-carboxamide] | > 6.00 | –
NC(=O)c1nn(CC(=O)N2C[C@H](F)C[C@H]2C(=O)Nc2cc(=O)[nH]n2C2CCCCC2)c2ccc(-c3ccnnc3)cc12 [Compound 168, 1-(2-((2S,4R)-2-(2-cyclohexyl-5-oxo-2,5-dihydro-1H-pyrazol-3-ylcarbamoyl)-4-fluoropyrrolidin-1-yl)-2-oxoethyl)-5-(pyridazin-4-yl)-1H-indazole-3-carboxamide] | < 5.00 | –
CC(=O)c1cn(CC(=O)N2C[C@H](F)C[C@H]2C(=O)Nc2n[nH]c(C)c2-c2ccccc2)c2ccc(-c3ccnnc3)cc12 [Compound 169, (2S,4R)-1-(2-(3-acetyl-5-(pyridazin-4-yl)-1H-indol-1-yl)acetyl)-4-fluoro-N-(5-methyl-4-phenyl-1H-pyrazol-3-yl)pyrrolidine-2-carboxamide] | > 6.00 | –
